Laboratory results published in article PMC9760604, “Strand 1A variant in neuroserpin shows increased aggregation and no loss of inhibition: implication in ameliorating polymerization to retain activity” (Bioscience Reports, 2022).
Where a chain is given by its changes, count along the chain named.

Legend:
WT NS (neuroserpin) [1] = molecular target: T1, WT NS (neuroserpin) (Homo sapiens, UniProt Q99574, H138C/W154C); test: Bis-ANS fluorescence, excitation […] nm; type: binding; details: 2 uM protein, Bis-ANS 1:5 ratio (10 uM), 25 °C, surface hydrophobicity probe
T1 construct: gene SERPINI1; N-terminal 6-His tag, pET28b, expressed in E. coli BL21(DE3), monomeric
T1 sequence (Q99574 17-410 H138C/W154C): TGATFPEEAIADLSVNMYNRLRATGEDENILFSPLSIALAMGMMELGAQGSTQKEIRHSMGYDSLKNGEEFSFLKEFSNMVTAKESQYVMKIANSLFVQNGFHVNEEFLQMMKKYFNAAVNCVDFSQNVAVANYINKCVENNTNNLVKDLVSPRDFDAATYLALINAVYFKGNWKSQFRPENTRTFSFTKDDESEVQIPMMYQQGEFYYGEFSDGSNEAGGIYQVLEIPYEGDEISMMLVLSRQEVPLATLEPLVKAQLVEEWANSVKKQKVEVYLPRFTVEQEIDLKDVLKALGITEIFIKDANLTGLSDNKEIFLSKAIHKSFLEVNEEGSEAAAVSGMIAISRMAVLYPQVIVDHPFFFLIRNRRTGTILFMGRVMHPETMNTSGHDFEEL

WT NS (neuroserpin) [2] = molecular target: T2, WT NS (neuroserpin) (Homo sapiens, UniProt Q99574, H138C); test: Bis-ANS fluorescence, excitation […] nm; type: binding; details: 2 uM protein, Bis-ANS 1:5 ratio (10 uM), 25 °C, surface hydrophobicity probe
T2 construct: gene SERPINI1; N-terminal 6-His tag, pET28b, expressed in E. coli BL21(DE3), monomeric
T2 sequence (Q99574 17-410 H138C): T1 sequence (Q99574 17-410 H138C/W154C) with C138W

Structure (SMILES): O=S(=O)(O)c1cccc2c(-c3ccc(Nc4ccccc4)c4c(S(=O)(=O)O)cccc34)ccc(Nc3ccccc3)c12 [Bis-ANS, 4,4-Bis-1-anilino naphthalene 8-sulfonate]
- Bis-ANS fluorescence, excitation 390 nm (WT NS (neuroserpin) [1]): The double variant showed a decreased fluoroscence emission intensity, and a very high surface hydrophobicity
- Bis-ANS fluorescence, excitation 390 nm (WT NS (neuroserpin) [2]): More hydrophobic exposure was observed due to increase Bis-ANS fluorescence in the H138C variant
